Measurements from article PMC9298194, “Clinical Pharmacokinetics of Daprodustat: Results of an Absorption, Distribution, and Excretion Study With Intravenous Microtracer and Concomitant Oral Doses for Bioavailability Determination” (Clinical Pharmacology in Drug Development, 2021).
Values joined by “and” are separate entries in the source; they are usually repeats but may differ in a detail not shown here. Equal entries are not always repeated. Where two headings read alike, the source gives them in different places.

Key:
[1] = Plasma daprodustat pharmacokinetics in healthy male participants (6 mg oral tablet, 50 μg IV microtracer, 25 mg oral solution); assay type: in vivo, human; conditions: for AUC / tmax / Cmax / half-life: plasma daprodustat; for tmax: median (range); for Cmax: arithmetic mean (SD); for half-life: read-out: t½ (converted)
Protocol: On day 1 of treatment period 1, after an overnight fast of at least 8 hours, each participant took a single 6 mg oral dose of daprodustat; participants continued to fast for < 3 hours when a small amount of food was administered to stimulate bile release for the Entero‐Test. After ≈1 hour, participants received 50 μg of [^14C]‐GSK1278863 (≈4.63 kBq; 125 nCi) by IV infusion over 1 hour. Blood samples were collected for 144 hours after oral dosing (until day 7). Participants were discharged on study day 7 after completion of the 144‐hour sample collection. The Entero‐Test was swallowed 3.5 hours before the oral dose of daprodustat (while in the fasted state) and removed 3 hours after the oral dose (about 1 hour after completion of the IV infusion). About 1.5 hours before string withdrawal, a food cue was used to stimulate gallbladder emptying.
On day 1 of treatment period 2, after an overnight fast of at least 8 hours, each participant received 25 mg [^14C]‐GSK1278863 (≈2.31 MBq; 62.5 μCi) as an oral solution; participants continued to fast for 4 hours after dosing.[15] Blood, urine, and fecal samples were collected for a minimum of 144 hours (up to day 7) after dosing, depending on the amount of radioactivity excreted by each participant in excreta collected daily. Liquid scintillation counting (LSC) was performed on these excreta collections on an ongoing basis to assess recovery of the radioactivity dosed. Participants were discharged if ≥90% and <1% of the dose was excreted on both days 6 and 7.
As per standard practice for administration of radiolabeled drug, the IV and oral dosing solutions were analyzed for daprodustat via assessment of the radioactivity and through application of the predetermined specific activity. Whole blood samples were collected for measurement of each of the following: blood total radioactivity in period 2 and plasma total radioactivity in period 1, plasma concentrations of daprodustat, and the 6 predominant circulating metabolites in periods 1 and 2. Blood samples were collected at 1, 3, and 6 hours after dosing for blood assessments. Blood samples were collected for plasma assessments before dosing and at 0.50, 1, 1.25, 1.5, 2, 3, 4, 6, 8, 10, 12, 24, 36, 48, 72, 96, 120, and 144 hours after dosing.
Daprodustat and [^14C]‐GSK1278863 plasma concentrations were measured in treatment period 1: 6 mg daprodustat oral tablet, followed by a 1‐hour IV infusion of 50 μg [^14C]‐GSK1278863, started 1 hour after tablet administration, and in treatment period 2: 25 mg [^14C]‐GSK1278863 oral solution.
Plasma samples from periods 1 and 2 were analyzed for daprodustat and its 6 metabolites by PPD Laboratories using a validated analytical method based on protein precipitation, followed by high‐performance liquid chromatography with tandem mass spectrometric detection analysis, as described previously.[7], [8] Specifically, the lower limit of quantification (LLQ) for this study was 0.100 ng/mL using a 100 μL aliquot of ethylenediaminetetraacetic acid plasma for all 7 analytes. The higher limit of quantification was 100 ng/mL for all 7 analytes. The data accuracy (% bias range: −2.21 to −0.400 to 0.560‐5.85) and precision (% coefficient of variation of 3.99‐7.13) met acceptable limits as recommended by the US Food and Drug Administration in their bioanalytical method validation guidelines.[17] Final PK concentration data for period 1 after 1‐hour samples for daprodustat were further corrected to account for radiolabeled ^14C dose.
Plasma samples collected from period 1 were analyzed for [^14C]‐GSK1278863 by GSK using a validated analytical method, based on protein precipitation, followed by liquid chromatography–AMS analysis. The LLQ was 1.80 pg/mL, using a 600 μL aliquot of human plasma with a higher limit of quantification of 358.92 pg/mL. Accuracy for the 5 validation levels were between −9.2% and 2.2%, and precision was between 2.5% and 10.8%. […]

[2] = coadministered with gemfibrozil; cited from earlier work
[3] = Metabolite load, hepatic extraction, fraction escaping gut metabolism and fraction absorbed analyses; assay type: in vivo, human
Protocol: To assess the extent of metabolism and absorption of daprodustat, the plasma PK parameters: metabolite load, fraction escaping metabolism by the gut wall (Fg), hepatic extraction (Eh), and fraction absorbed (Fabs) were calculated on the basis of equations found in Harrell et al.[18] All parameters for analysis have been conducted on plasma results (assuming a blood to plasma ratio of 1) but when appropriate, the actual human blood:plasma ratio of 1.23 (internal GSK reports) of daprodustat has been applied to specific parameters to aid interpretation. (1) HepaticExtraction:Eh(blood)=CLbtotal−CLbrenal/QH (2) Fractionescapinglivermetabolism:Fh=1−Eh(blood) (3) MetaboliteLoadTRA=totalradioactivity:MLroute=AUCTRAroute−AUCroute/AUCTRAroute (4) Fractionescapinggut:Fg=1−MLoral−MLIV/Fh (5) Fractionabsorbed:Fabs=Foral/Fh×Fg

[4] = 6 mg tablet vs 50 μg IV dose (120-fold dose difference), period 1
[5] = 25 mg oral solution vs 6 mg oral tablet (4.17-fold dose difference)

With O=C(O)CNC(=O)C1C(=O)N(C2CCCCC2)C(=O)N(C2CCCCC2)C1=O [Daprodustat] the “absolute bioavailability (oral F)” value ([1]; 6 mg oral tablet, based on AUC0‐inf) was 66.1%, the “fold difference in mean AUC0‐t, oral tablet vs IV” value [1, 4] was 75.0 fold and the “fold difference in mean Cmax, oral tablet vs IV” value [1, 4] was 47.2 fold. For the same molecule, the “fold increase in total exposure (AUC0‐inf), solution vs tablet” value ([1]; 25 mg oral solution vs 6 mg oral tablet) was 4.84 fold, the “fold increase in mean AUC0‐t, solution vs tablet” value [1, 5] was 4.84 fold and the “fold increase in mean Cmax, solution vs tablet” value [1, 5] was 5.86 fold. The “Oral F (0‐inf)” value ([1]; absolute bioavailability, 6 mg oral tablet vs IV microtracer, fraction, mean (SD), n = 3) was 0.661 (0.077), the clearance ([1]; male, human, blood, 50 μg, translated from plasma CL after IV administration, read-out: blood CL (converted)) was about 250 mL/min and the AUC ([1]; male, human, plasma, iv, 50 μg, [14C] 50 μg IV infusion, mean (SD), n = 3, read-out: AUC0‐inf) was 2.71 ng·h/mL. For the same molecule, the AUC ([1]; male, human, plasma, iv, 50 μg, [14C] 50 μg IV infusion, mean (SD), read-out: AUC0‐t) was 2.68 ng·h/mL, the tmax ([1]; male, human, plasma, iv, 50 μg, [14C] 50 μg IV infusion, read-out: tmax) was 1 h and the bioavailability ([1]; male, human, plasma, po, 6 mg, 6 mg oral tablet, based on AUC0‐inf, read-out: absolute bioavailability (oral F)) was about 66%. It also gave an AUC ([1]; male, human, plasma, po, 6 mg, 6 mg oral tablet, mean (SD), read-out: AUC0‐inf) of 202 ng·h/mL, an AUC ([1]; male, human, plasma, po, 6 mg, 6 mg oral tablet, mean (SD), read-out: AUC0‐t) of 201 ng·h/mL and a tmax ([1]; male, human, plasma, po, 6 mg, 6 mg oral tablet, read-out: tmax) of about 2 h. It also gave an AUC ([1]; male, human, plasma, po, 25 mg, [14C] 25 mg oral solution, mean (SD), read-out: AUC0‐inf) of 974 ng·h/mL, an AUC ([1]; male, human, plasma, po, 25 mg, [14C] 25 mg oral solution, mean (SD), read-out: AUC0‐t) of 972 ng·h/mL and a tmax ([1]; male, human, plasma, po, 25 mg, [14C] 25 mg oral solution, read-out: tmax) of about 0.5 h. It also gave a Vd ([1]; male, human, plasma, [14C] 50 μg IV infusion, mean (SD), n = 3, read-out: Vss) of 14.6 L, a clearance ([1]; male, human, plasma clearance, [14C] 50 μg IV infusion, mean (SD), n = 3, read-out: CL (converted)) of 322 mL/min and a Cmax ([1]; male, human, 6 mg oral tablet) of 97.3 ng/mL. For the same molecule, the half-life ([1]; male, human, 6 mg oral tablet, mean (SD)) was 1.92 h, the Cmax ([1]; male, human, [14C] 50 μg IV infusion over 1 h) was 2.06 ng/mL and the half-life ([1]; male, human, [14C] 50 μg IV infusion, mean (SD), n = 3) was 2.07 h. For the same molecule, the Cmax ([1]; male, human, [14C] 25 mg oral solution) was 570 ng/mL, the half-life ([1]; male, human, [14C] 25 mg oral solution, mean (SD)) was 2.6 h and the tmax ([1]; 6 mg oral tablet) was 2.12 (1.42−4.00) h. The tmax ([1]; [14C] 50 μg IV infusion) was 0.983 (0.983−0.983) h, the tmax ([1]; [14C] 25 mg oral solution) was 0.500 (0.500−0.517) h and the “increase in the plasma exposure of daprodustat” value [2] was 18.6 fold. For the same molecule, the “Eh (hepatic extraction)” value ([3]; [14C] IV infusion, fraction, adjusted with blood:plasma ratio of 1.23, mean (SD), n = 3) was 0.181 (0.050), the “MLIV (plasma metabolite load)” value ([3]; [14C] IV infusion, mean (SD), n = 3) was 0.623 (0.080) and the “MLIV (plasma metabolite load)” value ([3]; [14C] IV infusion, mean (SD), n = 3, listed as daprodustat) was “≈ 0.623 (0.080)”. For the same molecule, the “Fabs (fraction absorbed)” value ([3]; [14C] oral solution, fraction, reduced to Foral/Fh, blood:plasma ratio 1.23, mean (SD), n = 3) was 0.811 (0.134), the “Fg (fraction escaping metabolism by the gut wall)” value ([3]; [14C] oral solution, mean (SD), n = 3) was over 1 and the “MLPO (plasma metabolite load)” value ([3]; [14C] oral solution, mean (SD), n = 6) was ~0.584 (0.060). For the same molecule, the “daprodustat absorbed across the gastrointestinal tract (Fabs)” value ([3]; following oral solution administration) was “≈ 80% and 81% and ≈ 81%” and the hepatic extraction ([3]; from blood CL, human liver blood flow of 87 L/h) was “≈ 18% and 18%”.
